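96-well plates; 48 h exposure; 5 concentrations. Endpoints by linear interpolation between flanking doses. Not reached: highest tested concentration assigned. GI50 is the concentration that inhibits growth by half. TGI is the concentration that stops growth completely.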
Key:
Experiment in all cases: NCI anticancer screen, dose series, 48 h
NCI-H522 lung = system: NCI-H522 lung
SK-MEL-28 melanoma = system: SK-MEL-28 melanoma
OVCAR-4 ovarian = system: OVCAR-4 ovarian
MOLT-4 leukemia = system: MOLT-4 leukemia
U251 CNS = system: U251 CNS
LOX IMVI melanoma = system: LOX IMVI melanoma
SF-539 CNS = system: SF-539 CNS
SF-295 CNS = system: SF-295 CNS
SNB-19 CNS = system: SNB-19 CNS
SW-620 colon = system: SW-620 colon
OVCAR-3 ovarian = system: OVCAR-3 ovarian
A498 renal = system: A498 renal
CAKI-1 renal = system: CAKI-1 renal
HOP-92 NSCLC = system: HOP-92 NSCLC
HL-60(TB) leukemia = system: HL-60(TB) leukemia
IGROV1 ovarian = system: IGROV1 ovarian
ACHN renal = system: ACHN renal
NCI-H226 lung = system: NCI-H226 lung
MCF7 breast = system: MCF7 breast
HT29 colon = system: HT29 colon
HCT-116 colon = system: HCT-116 colon
TK-10 renal = system: TK-10 renal
786-0 renal = system: 786-0 renal
T-47D breast = system: T-47D breast
K-562 leukemia = system: K-562 leukemia
SK-MEL-5 melanoma = system: SK-MEL-5 melanoma
NCI-H23 lung = system: NCI-H23 lung
RPMI-8226 leukemia = system: RPMI-8226 leukemia
DU-145 prostate = system: DU-145 prostate
UO-31 renal = system: UO-31 renal
HCT-15 colon = system: HCT-15 colon
MDA-MB-468 breast = system: MDA-MB-468 breast
SF-268 CNS = system: SF-268 CNS
NCI/ADR-RES ovarian = system: NCI/ADR-RES ovarian
HS 578T breast = system: HS 578T breast
SR leukemia = system: SR leukemia
SK-MEL-2 melanoma = system: SK-MEL-2 melanoma
HOP-62 NSCLC = system: HOP-62 NSCLC
SNB-75 CNS = system: SNB-75 CNS
MDA-MB-435 = system: MDA-MB-435
NCI-H460 lung = system: NCI-H460 lung
MDA-MB-231 breast = system: MDA-MB-231 breast
A549 NSCLC = system: A549 NSCLC
COLO 205 colon = system: COLO 205 colon
HCC-2998 colon = system: HCC-2998 colon
SN12C renal = system: SN12C renal
KM12 colon = system: KM12 colon
PC-3 prostate = system: PC-3 prostate
OVCAR-5 ovarian = system: OVCAR-5 ovarian
EKVX NSCLC = system: EKVX NSCLC
MALME-3M melanoma = system: MALME-3M melanoma
UACC-62 melanoma = system: UACC-62 melanoma
M14 melanoma = system: M14 melanoma
CCRF-CEM leukemia = system: CCRF-CEM leukemia
BT-549 breast = system: BT-549 breast
SK-OV-3 ovarian = system: SK-OV-3 ovarian
UACC-257 melanoma = system: UACC-257 melanoma
OVCAR-8 ovarian = system: OVCAR-8 ovarian
RXF 393 renal = system: RXF 393 renal

## O=C1NC(=NC23CC4CC(CC(C4)C2)C3)N/C1=C\c1ccc2ncoc2c1
NCI-H522 lung
  GI50: 230 nM
  TGI: 5630 nM
SK-MEL-28 melanoma
  GI50: 333 nM
  TGI: 1830 nM
OVCAR-4 ovarian
  GI50: 902 nM
  TGI: > 43300 nM
MOLT-4 leukemia
  GI50: 281 nM
  TGI: > 100000 nM
U251 CNS
  GI50: 303 nM
  TGI: > 100000 nM
LOX IMVI melanoma
  GI50: 239 nM
  TGI: > 100000 nM
SF-539 CNS
  GI50: 103 nM
  TGI: 474 nM
SF-295 CNS
  GI50: 487 nM
  TGI: > 100000 nM
SNB-19 CNS
  GI50: 319 nM
  TGI: > 100000 nM
SW-620 colon
  GI50: 318 nM
  TGI: > 100000 nM
OVCAR-3 ovarian
  GI50: 243 nM
  TGI: > 84300 nM
A498 renal
  GI50: 312 nM
  TGI: 919 nM
CAKI-1 renal
  GI50: 391 nM
  TGI: > 100000 nM
HOP-92 NSCLC
  GI50: 511 nM
  TGI: > 91700 nM
HL-60(TB) leukemia
  GI50: 308 nM
  TGI: 2290 nM
IGROV1 ovarian
  GI50: 430 nM
  TGI: > 44800 nM
ACHN renal
  GI50: 210 nM
  TGI: 5200 nM
NCI-H226 lung
  GI50: 475 nM
  TGI: > 100000 nM
MCF7 breast
  GI50: 324 nM
  TGI: > 100000 nM
HT29 colon
  GI50: 1520 nM
  TGI: > 100000 nM
HCT-116 colon
  GI50: 99.3 nM
  TGI: > 100000 nM
TK-10 renal
  GI50: 737 nM
  TGI: > 100000 nM
786-0 renal
  GI50: 434 nM
  TGI: > 100000 nM
T-47D breast
  GI50: 427 nM
  TGI: > 100000 nM
K-562 leukemia
  GI50: 589 nM
  TGI: > 100000 nM
SK-MEL-5 melanoma
  GI50: 144 nM
  TGI: 5650 nM
NCI-H23 lung
  GI50: 217 nM
  TGI: 1510 nM
RPMI-8226 leukemia
  GI50: 279 nM
  TGI: 28500 nM
DU-145 prostate
  GI50: 315 nM
  TGI: > 100000 nM
UO-31 renal
  GI50: 358 nM
HCT-15 colon
  GI50: 240 nM
  TGI: > 100000 nM
MDA-MB-468 breast
  GI50: 169 nM
  TGI: 548 nM
SF-268 CNS
  GI50: 412 nM
  TGI: 12800 nM
NCI/ADR-RES ovarian
  GI50: 253 nM
  TGI: 1210 nM
HS 578T breast
  GI50: 412 nM
  TGI: 4200 nM
SR leukemia
  GI50: 45.1 nM
  TGI: 2480 nM
SK-MEL-2 melanoma
  GI50: 500 nM
  TGI: 1320 nM
HOP-62 NSCLC
  GI50: 413 nM
  TGI: > 100000 nM
SNB-75 CNS
  GI50: 280 nM
  TGI: 1400 nM
MDA-MB-435
  GI50: 613 nM
  TGI: > 100000 nM
NCI-H460 lung
  GI50: 385 nM
  TGI: > 55500 nM
MDA-MB-231 breast
  GI50: 369 nM
  TGI: 8050 nM
A549 NSCLC
  GI50: 283 nM
  TGI: > 100000 nM
COLO 205 colon
  GI50: 405 nM
  TGI: 5910 nM
HCC-2998 colon
  GI50: 588 nM
  TGI: 7530 nM
SN12C renal
  GI50: 254 nM
  TGI: > 100000 nM
KM12 colon
  GI50: 342 nM
  TGI: > 76000 nM
PC-3 prostate
  GI50: 338 nM
  TGI: > 100000 nM
OVCAR-5 ovarian
  GI50: 322 nM
  TGI: > 100000 nM
EKVX NSCLC
  GI50: 469 nM
  TGI: 4560 nM
MALME-3M melanoma
  GI50: 952 nM
  TGI: 3710 nM
UACC-62 melanoma
  GI50: 347 nM
  TGI: 1390 nM
M14 melanoma
  GI50: 325 nM
  TGI: > 100000 nM
CCRF-CEM leukemia
  GI50: 267 nM
BT-549 breast
  GI50: 160 nM
  TGI: 1400 nM
SK-OV-3 ovarian
  GI50: 4040 nM
  TGI: > 100000 nM
UACC-257 melanoma
  GI50: 863 nM
  TGI: > 34400 nM
OVCAR-8 ovarian
  GI50: 293 nM
  TGI: > 100000 nM
RXF 393 renal
  GI50: 215 nM
  TGI: 477 nM

From PubChem BioAssay (NCI)
